We go through 2 molecules from publication PMC3904487, “The effect of piperine on midazolam plasma concentration in healthy volunteers, a research on the CYP3A-involving metabolism” (DARU Journal of Pharmaceutical Sciences, 2014).

SMILES strings stand for the structures. Several values for one entry are separate records, joined by “and”; a condition that tells them apart may be missing. Equal entries are not always repeated.

Data set [1] can be described thus: Clinical features (sedation, amnesia, side effects) after oral midazolam in placebo and piperine pretreatment groups. Format: in vivo, human. The note with it: midazolam 10 mg oral; for End of drug effect / duration of sedation / Onset of drug effect (sedative effect of midazolam): n=20, mean (±SD).
A short description of data set [2]: Midazolam plasma concentration (HPLC) and one-compartment PK after placebo or piperine pretreatment in healthy volunteers.
From the text: This was a cross-over controlled study on two groups (n=10) of healthy volunteers. A one-month period was considered as wash out time between two trials. […] Inclusion criteria: being healthy; age ranging 18 to 35; normal diet; not receiving microsomal enzyme inhibitor or inducer agents for at least 7 days before the study; not using black pepper for at least 7 days before the study. Exclusion criteria: age being below 18 and above 35; smocking; pregnancy; metabolic disorders; high pepper diet, receiving enzyme inhibitors or inducers.
Healthy volunteers regardless of gender were randomly divided into two control and piperine receiving groups (n=20 per group). The subject received placebo or piperine (1 capsule 15 mg of piperine daily for 3 days before midazolam) and midazolam (10 mg as an oral single dose) on fourth day of the study. […] Blood samples (maximum 10 ml) were taken at 0.5, 2.5 and 5 hour after midazolam administration. After a month as a wash out period, the treatment program was exchanged between placebo and piperine groups and all steps were done as same as the previous.
Blood samples were transferred into labeled tubes containing Ca-EDTA and shake gently to mix Ca-EDTA with blood for preventing of coagulation.The samples were centrifuged at 3500 ×g for 15 min and supernatant plasma layer transferred into a blank tube. Until the assay of midazolam or diazepam concentration, the plasma samples were kept at −20°C.
For measurement of the drugs concentration, plasma samples were removed from the freezer condition and left in the laboratory to convert from frozen into a liquid sample. Then 0.5 ml of thawed plasma sample was transferred into a capped falcon tube. In the next step, 100 micl of 1 M NaOH and 100 micl isoamyl alcohol were added. After a gently shaking, 4.5 ml of n-hexan was added and shake for 1 minute. The final solutions were centrifuged at 300 ×g for 5 min. After this step, 4.2 ml of supernatant was drawn and transferred into a plastic tube and 100 miclof 0.05 M HCl was added to the solution and centrifuged similar as the previous. Then the supernatant (organic layer) was discarded and the remaining was directly injected into the HPLC.
The separation was carried out at ambient temperature using a single-column isocratic reverse-phase method. The mobile phase consisted of 75% methanol and 25% water. Flow rate was set at 0.8 ml/min. The extracts were detected by UV detector at 242 nm wavelength. Twenty micl of the aqueous layer of final extract was injected into the HPLC using a Hamilton’s syringe. The injection was repeated 3 times for each sample. Peaks area and height were considered for midazolam and diazepam detection and used for calculation of the drugs concentration in the final plasma extract.
The second; pharmacokinetic (PK) parameters such as absorption rate constant (Ka), clearance, half-life and volume of distribution of midazolam in the placebo and piperine groups were calculated based on assumed one-compartment kinetics using P-Pharm software.
Based on non-parametric distribution, data of three concentrations by time were analyzed using Friedman test. Wilcoxon U-test was used for the results of clearance, volume of distribution and half-life of midazolam in piperine group compared to placebo. The difference of the PK parameters between two groups was considered statistically significant at p<0.05.
[3] abbreviates: piperine 15 mg x 3 days pretreatment.
[4] abbreviates: piperine 15 mg x 3 days pretreatment, of n=20.
Setting [5] is: placebo pretreatment, midazolam 10 mg oral, n=20.

For the molecule `O=C(/C=C/C=C/c1ccc2c(c1)OCO2)N1CCCCC1` [Piperine, piperine], in data set [1] (setting [3]), the “Subjects with severe sedation and dizziness” value turned out to be 55%; the “End of drug effect / duration of sedation” value is 188 (±59) min; the “Onset of drug effect (sedative effect of midazolam)” value was 11.75 (±4.9) min. Moreover, the “End of drug effect / duration of sedation” value in data set [1] (piperine 15 mg x 3 days pretreatment, listed as piperine) worked out at 188 ± 59 min. In data set [1] (setting [4]), the “Amnesia (frequency, subjects)” value is 7 and the “Sedation (frequency, subjects)” value worked out at 20. In addition, the “Amnesia (frequency, subjects)” value in data set [1] (piperine 15 mg x 3 days pretreatment, of n=20, listed as piperine) is recorded as “Seven”. For the same molecule, the “Subjects with hiccup when receiving midazolam” value in data set [1] (piperine 15 mg x 3 days pretreatment, disappeared during first hours) is on record as “One”.

Broadly, the AUC(0-t) is exposure summed from dosing to a finite time, without extrapolation to infinity. As a reminder, the half-life is the time needed for the level to fall by half in the phase considered. Turning to `Cc1ncc2n1-c1ccc(Cl)cc1C(c1ccccc1F)=NC2` [midazolam], in data set [1] (placebo pretreatment), the “Subjects with severe sedation and dizziness” value was determined as 30%; the “End of drug effect / duration of sedation” value was 102±43 min and 102 (±43) min; the “Onset of drug effect (sedative effect of midazolam)” value is 11.25 (±4.5) min. Also, the “Amnesia (frequency, subjects)” value in data set [1] (placebo pretreatment, of n=20) worked out at 4. In addition, in data set [2] (both, human, plasma, po, 10 mg), the AUC(0-t) was determined as 411 ± 235 ng·h/mL and the half-life is 1.71 h. Further, in data set [2] (placebo group, after midazolam 10 mg oral, population concentration-time curve), the “Time of maximum plasma midazolam concentration” value is 1.5 h. In data set [2] (setting [5]), the “Kel, elimination rate constant of midazolam (Max)” value is 0.42; the “Kel, elimination rate constant of midazolam (Min)” value is given as 0.390; the “Kel, elimination rate constant of midazolam (mean)” value came out at 0.41; the “T1/2, half-life of midazolam (Max)” value was determined as 1.78 h. Besides, in data set [2] (setting [5]), the “T1/2, half-life of midazolam (Min)” value was 97.8 min; the “Volume (of distribution) of midazolam (Max)” value was 93.03; the “Volume (of distribution) of midazolam (Min)” value was 87.63; the “Volume (of distribution) of midazolam (mean)” value was determined as 91.44.
